Experimental data as given in ChEMBL document CHEMBL4725391, “Discovery and Optimization of Novel SUCNR1 Inhibitors: Design of Zwitterionic Derivatives with a Salt Bridge for the Improvement of Oral Exposure” (J Med Chem, 2020).
The source made the active and inactive calls. The calls are words filed in the database; no cut-off is given here.

Legend:
[1] = Octanol-water distribution coefficient, log D of the compound by shake flask method; format: physicochemical
[2] = Permeability of compound by PAMPA assay; format: ADME
[3] = Oral bioavailability in C57BL/6 mouse measured after 0.25 to 24 hrs by LC-MS/MS analysis; format: ADME, organism-based; conditions: in vivo, time 0.25-24 hrs
[4] = Dose normalized AUC in C57BL/6 mouse at 3 mg/kg, po measured after 0.25 to 24 hrs by LC-MS/MS analysis; format: ADME, organism-based; conditions: in vivo, time 0.25-24 hrs
[5] = Clearance in C57BL/6 mouse at 1 mg/kg, iv administered as bolus dose measured after 0.083 to 24 hrs by LC-MS/MS analysis; format: ADME, organism-based; conditions: in vivo, time 0.083-24 hrs
[6] = target: T1, Succinate receptor 1 (Homo sapiens, UniProt Q9BXA5); experiment: Antagonist activity at human SUCNR1 expressed in human CHEM1 cells incubated for 60 mins in presence of [35S]GTPgammaS by scintillation proximity assay; format: functional, cell-based, Chem-1
T1 sequence (Q9BXA5 whole entry): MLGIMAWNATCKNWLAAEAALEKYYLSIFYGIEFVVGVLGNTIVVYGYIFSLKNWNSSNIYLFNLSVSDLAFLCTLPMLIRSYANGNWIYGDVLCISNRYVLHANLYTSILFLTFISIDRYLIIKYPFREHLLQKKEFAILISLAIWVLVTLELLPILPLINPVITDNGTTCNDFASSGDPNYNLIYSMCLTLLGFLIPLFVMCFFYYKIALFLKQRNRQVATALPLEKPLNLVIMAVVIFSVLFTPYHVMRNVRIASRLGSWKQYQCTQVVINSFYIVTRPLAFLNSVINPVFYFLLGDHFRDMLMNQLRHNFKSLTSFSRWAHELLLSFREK

[7] = Intrinsic clearance in rat liver microsomes; format: ADME, Microsome; conditions: read-out: CLH
[8] = Protein binding in human plasma at 5 uM incubated for 4 hrs by LC-MS/MS analysis; format: ADME, cell-free; conditions: read-out: PPB (converted)
[9] = Protein binding in C57BL/6 mouse plasma at 5 uM incubated for 4 hrs by LC-MS/MS analysis; format: ADME, cell-free; conditions: read-out: PPB (converted)
[10] = target: Complement factor D (Homo sapiens, UniProt P00746); experiment: Inhibition of recombinant human CFD expressed in Escherichia coli incubated up to 2 hrs by TR-FRET assay
[11] = target: Coagulation factor XI (Homo sapiens, UniProt P03951); experiment: Inhibition of human factor 11a by TR-FRET assay
[12] = target: T2, Succinate receptor 1 (Homo sapiens) (UniProt Q9BXA5); experiment: Antagonist activity at human SUCNR1 expressed in human CHEM1 cell membranes at 100 uM incubated for 60 mins in presence of [35S]GTPgammaS by scintillation proximity assay; format: functional; conditions: Chem-1
T2 sequence (whole entry): T1 sequence (Q9BXA5 whole entry)

[13] = target: T3, Succinate receptor 1 (Mus musculus) (UniProt Q99MT6); experiment: Antagonist activity at mouse SUCNR1 100 uM
T3 sequence (whole entry): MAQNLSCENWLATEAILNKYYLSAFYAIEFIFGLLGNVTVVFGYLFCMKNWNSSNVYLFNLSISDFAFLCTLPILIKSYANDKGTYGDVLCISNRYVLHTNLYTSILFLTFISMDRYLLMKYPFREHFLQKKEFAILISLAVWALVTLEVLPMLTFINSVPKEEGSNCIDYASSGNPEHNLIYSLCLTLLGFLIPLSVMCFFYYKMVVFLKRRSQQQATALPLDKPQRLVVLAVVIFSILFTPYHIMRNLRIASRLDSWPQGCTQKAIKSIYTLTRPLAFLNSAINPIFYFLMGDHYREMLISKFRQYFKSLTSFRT

[14] = target: T4, Succinate receptor 1 (Rattus norvegicus) (UniProt Q6IYF9); experiment: Antagonist activity at rat SUCNR1 expressed in CHO-K1 cell membranes at 100 uM incubated for 60 mins in presence of [35S]GTPgammaS by scintillation proximity assay relative to control; format: functional; conditions: filed as antagonist
T4 sequence (whole entry): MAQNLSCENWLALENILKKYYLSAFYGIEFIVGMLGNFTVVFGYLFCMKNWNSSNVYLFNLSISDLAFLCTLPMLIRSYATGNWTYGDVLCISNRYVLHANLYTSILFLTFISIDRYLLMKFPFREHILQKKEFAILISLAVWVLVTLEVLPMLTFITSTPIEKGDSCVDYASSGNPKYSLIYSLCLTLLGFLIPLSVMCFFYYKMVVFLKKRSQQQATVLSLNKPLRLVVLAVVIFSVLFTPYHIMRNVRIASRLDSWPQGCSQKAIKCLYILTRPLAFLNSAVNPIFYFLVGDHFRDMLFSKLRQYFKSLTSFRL

[15] = Ionization constant (acid), pKa of the compound by UV metric assay; format: physicochemical
[16] = Oral bioavailability in C57BL/6 mouse at 10 mg/kg measured after 0.25 to 24 hrs by LC-MS/MS analysis; format: ADME, organism-based; conditions: in vivo, time 0.25-24 hrs
[17] = Dose normalized AUC in C57BL/6 mouse at 10 mg/kg, po measured after 0.25 to 24 hrs by LC-MS/MS analysis; format: ADME, organism-based; conditions: in vivo, time 0.25-24 hrs
[18] = Ionization constant (base), pKa of the compound; format: physicochemical

Chain of Coagulation factor XI (P03951 19-387 limits assumed): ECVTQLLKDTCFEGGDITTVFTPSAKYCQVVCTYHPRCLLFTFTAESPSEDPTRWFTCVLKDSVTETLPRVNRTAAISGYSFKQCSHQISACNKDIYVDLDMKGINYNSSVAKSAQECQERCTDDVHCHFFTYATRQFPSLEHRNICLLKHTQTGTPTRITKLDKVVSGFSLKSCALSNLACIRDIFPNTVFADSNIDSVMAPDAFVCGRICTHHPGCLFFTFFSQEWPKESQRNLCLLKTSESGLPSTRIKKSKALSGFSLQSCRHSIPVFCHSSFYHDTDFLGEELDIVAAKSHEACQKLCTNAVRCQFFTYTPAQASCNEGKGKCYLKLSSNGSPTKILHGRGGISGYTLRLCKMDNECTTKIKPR
Chain of Coagulation factor XI (P03951 388-625 limits assumed): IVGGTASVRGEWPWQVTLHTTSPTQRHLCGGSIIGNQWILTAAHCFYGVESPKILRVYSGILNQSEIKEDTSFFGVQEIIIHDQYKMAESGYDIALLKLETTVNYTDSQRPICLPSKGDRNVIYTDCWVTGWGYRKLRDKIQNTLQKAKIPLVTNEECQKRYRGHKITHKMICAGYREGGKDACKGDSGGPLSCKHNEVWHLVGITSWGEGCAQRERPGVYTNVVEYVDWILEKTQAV
Chain of Complement factor D (P00746 whole entry): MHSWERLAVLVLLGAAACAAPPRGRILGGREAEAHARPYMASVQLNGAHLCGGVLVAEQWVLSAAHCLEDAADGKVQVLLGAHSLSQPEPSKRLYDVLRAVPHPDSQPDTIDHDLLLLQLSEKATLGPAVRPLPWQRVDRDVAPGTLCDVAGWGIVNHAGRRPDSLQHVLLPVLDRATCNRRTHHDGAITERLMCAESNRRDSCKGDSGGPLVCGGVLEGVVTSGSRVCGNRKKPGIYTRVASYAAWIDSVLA

Structure (SMILES) | logD [1] | log(permeability) [2] | IC50 [6] [µM] | also measured
CN1CCN(Cc2ccc(-c3cccc(C(=O)Nc4ccccc4CC(=O)O)c3)cc2)CC1 | 0.5 | -5.5 | – | –
NCCOc1cc(-c2cccc(C(=O)Nc3ccccc3CC(=O)O)c2)ccc1Cl | 2.8 | -5.4 | – | –
O=C(O)Cc1ccccc1NC(=O)c1cccc(-c2ccc(Cl)cc2)c1F | 1.4 | -3.6 | – | bioavailability [3]: 95%; AUC/dose [4]: 7814 nmol·h/L; clearance [5]: 10 mL/min/kg
O=C(O)CC(NC(=O)c1cccc(-c2ccc(Cl)cc2)c1)c1cccnc1 (configuration not stated) | 0.9 | -5.3 | 32 | microsomal CLint [7]: 25 µL/min/mg
O=C(O)C[C@H](NC(=O)c1cccc(-c2ccc(Cl)cc2)c1)c1cccnc1 | 1.3 | -5.3 | 12 | –
O=C(O)Cc1cc(F)ccc1NC(=O)c1cccc(-c2ccc(Cl)c(O[C@@H]3CCCNC3)c2F)c1 | – | -4.9 | – | bioavailability [3]: 93%; AUC/dose [4]: 26100 nmol·h/L; clearance [5]: 1.2 mL/min/kg
O=C(O)Cc1ccccc1NC(=O)c1cccc(-c2ccc(Cl)c(O[C@H]3CCCNC3)c2)c1F | – | – | – | fraction unbound at 4 h, 5 µM [8]: 0.014; fraction unbound at 4 h, 5 µM [9]: 0.003
O=C(O)Cc1ccccc1NC(=O)c1cccc(-c2ccc(Cl)c(O[C@@H]3CCCNC3)c2)c1F | – | -5.3 | – | fraction unbound at 4 h, 5 µM [8]: 0.04; bioavailability [3]: 46%; AUC/dose [4]: 1437 nmol·h/L; clearance [5]: 11 mL/min/kg; fraction unbound at 4 h, 5 µM [9]: 0.026
O=C(O)Cc1ccccc1NC(=O)c1cccc(-c2ccc(Cl)c(O[C@@H]3CCCNC3)c2F)c1 | – | -5 | – | bioavailability [3]: 81%; AUC/dose [4]: 2353 nmol·h/L; clearance [5]: 12 mL/min/kg
NCc1cc(-c2cccc(C(=O)Nc3ccccc3CC(=O)O)c2)ccc1Cl | 2.1 | -5.3 | 0.3 | fraction unbound at 4 h, 5 µM [8]: 0.021; IC50 [10]: > 100 µM; IC50 [11]: 5.8 µM
O=C(O)Cc1ccccc1NC(=O)c1cccc(-c2ccc(Cl)c(OC3CCNC3)c2)c1 (configuration not stated) | 2.8 | -5.3 | – | –
O=C(O)C[C@@H](NC(=O)c1cccc(-c2ccc(Cl)cc2)c1)c1cccnc1 | – | – | – | inhibition [12]: inactive
O=C(O)Cc1cc(F)ccc1NC(=O)c1cccc(-c2cc(O[C@@H]3CCCNC3)c(Cl)cc2F)c1F | – | -5.1 | 0.088 | bioavailability [3]: 74%; AUC/dose [4]: 37000 nmol·h/L; clearance [5]: 0.6 mL/min/kg; inhibition [13]: 23%; inhibition [14]: 56%
O=C(Nc1ccccc1C(=O)O)c1cccc(-c2ccc(Cl)cc2)c1 | 3 | -3.7 | 23 | –
O=C(O)Cc1cc(F)ccc1NC(=O)c1cccc(-c2cc(O[C@@H]3CCCNC3)c(Cl)cc2F)c1 | – | -4.4 | – | bioavailability [3]: 137%; AUC/dose [4]: 5737 nmol·h/L; clearance [5]: 8 mL/min/kg
NCc1cccc(-c2cccc(COc3ccccc3CC(=O)O)c2)c1 | – | -4.5 | > 100 | pKa [15]: 4.4; bioavailability [16]: > 100%; AUC/dose [17]: 3646 nmol·h/L; pKa [18]: 9.4
O=C(O)Cc1ccccc1NC(=O)c1cccc(-c2ccc(Cl)c(OC3CCCNC3)c2)c1 (configuration not stated) | 3.6 | -4.4 | 0.52 | pKa [15]: 4.1; pKa [18]: 9.4
O=C(O)Cc1ccccc1NC(=O)c1cccc(-c2ccc(Cl)c(OC3CCNCC3)c2)c1 | 2.5 | -5.4 | 0.14 | pKa [15]: 4.1; pKa [18]: 9.9
NCc1cccc(-c2cccc(C(=O)Nc3ccccc3CC(=O)O)c2)c1 | – | < -5.3 | 27 | pKa [15]: 4; AUC/dose [17]: 206 nmol·h/L; pKa [18]: 9.5
O=C(O)Cc1ccccc1NC(=O)c1cccc(-c2ccc(Cl)cc2)c1 | 1.9 | -3.8 | 1.3 | fraction unbound at 4 h, 5 µM [8]: < 0.01
O=C(O)Cc1ccccc1NC(=O)c1cccc(-c2ccc(Cl)c(OC3CNC3)c2)c1 | 2.6 | -5.2 | – | –
